Source: PubChem BioAssay AID588733 (Vanderbilt Specialized Chemistry Center, 2011)
The source made the active and inactive calls. No rule for the calls is given here.

Target: Metabotropic glutamate receptor 2 (Rattus norvegicus) (UniProt P31421)
Assay: rat mGlu2 allosteric modulation, glutamate curve shift, thallium flux, GIRK cells (AID 588733)
Conditions: glutamate CRC fold shift, at 10 µM, hits give high values

Chain of Metabotropic glutamate receptor 2 (Rattus norvegicus) (P31421 whole entry, looked up): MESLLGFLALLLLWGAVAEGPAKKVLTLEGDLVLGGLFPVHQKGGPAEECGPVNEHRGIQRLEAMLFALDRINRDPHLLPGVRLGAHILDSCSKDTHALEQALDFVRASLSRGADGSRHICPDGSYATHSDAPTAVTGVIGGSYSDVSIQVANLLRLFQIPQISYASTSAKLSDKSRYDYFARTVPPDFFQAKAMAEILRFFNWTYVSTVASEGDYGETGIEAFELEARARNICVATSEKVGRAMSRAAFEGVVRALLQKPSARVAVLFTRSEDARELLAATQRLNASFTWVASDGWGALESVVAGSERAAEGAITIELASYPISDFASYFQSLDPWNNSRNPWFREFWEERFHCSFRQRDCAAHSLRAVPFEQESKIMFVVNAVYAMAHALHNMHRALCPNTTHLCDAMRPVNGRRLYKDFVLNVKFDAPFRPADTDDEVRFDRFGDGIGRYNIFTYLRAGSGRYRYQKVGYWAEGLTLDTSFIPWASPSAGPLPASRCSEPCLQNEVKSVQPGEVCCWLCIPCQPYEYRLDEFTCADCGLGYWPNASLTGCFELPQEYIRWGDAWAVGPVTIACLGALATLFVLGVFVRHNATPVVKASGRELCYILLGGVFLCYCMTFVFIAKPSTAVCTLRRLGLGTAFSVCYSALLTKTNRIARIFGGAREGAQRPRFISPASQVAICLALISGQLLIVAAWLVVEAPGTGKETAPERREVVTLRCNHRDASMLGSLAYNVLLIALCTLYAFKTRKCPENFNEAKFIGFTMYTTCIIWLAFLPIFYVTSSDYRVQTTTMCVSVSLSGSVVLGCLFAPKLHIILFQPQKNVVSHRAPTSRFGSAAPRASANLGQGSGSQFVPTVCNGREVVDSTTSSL

| SMILES | fold shift |
| --- | --- |
| C[C@@H](NC(=O)c1ccc(C#Cc2cccc(F)c2)cn1)C(C)(C)O | 1.02 (inactive) |
| CC1(NC(=O)c2ccc(C#Cc3cccc(F)c3)cn2)COC1 | 0.92 (inactive) |
